Test results from patent publication US20080267981A1, “Compositions and Methods for Delivery of Antitumor Agents” (The Scripps Research Institute, priority 2004, published 2008).

Legend:
HdFa cells = test: MTT cell proliferation assay on normal HdFa cells; assay type: cell-based, human; conditions: normal HdFa cells versus SW1990 cancer cells
Experimental: Cell proliferation assay. The cytotoxicity of scFv-drug or free drug was quantified by using the Vybrant MTT cell proliferation assay kit (Molecular Probes). Assays were performed using 48-well microtiter plates containing 2×10^4 SW1990 (HdFa) cells/well in 300 μL of phenol-free growth medium. Cells were allowed to attach to the wells for 12 hours. For determination of IC50, cells were incubated for 3 or 12 h at 37° C. with various concentrations of Pan10-drug conjugates, maleimide derivatives or free drugs. Then the incubation was continued in conjugate/drug-free medium and the MTT assay was performed at the end of the seventh day. Medium was replaced with 100 μL of fresh medium containing 1.2 mM MTT and the incubation continued for three more hours. The cells were then lysed by adding 100 μL of a 10 mM solution of HCL containing SDS (100 mg/mL). The cell lysis was allowed to proceed for a period of 8 hours at the end of which the plate was centrifuged at 3000 rpm for 3 min and the supernatant transferred in a 96-well plate and read at 570 nm. Each assay included a […]. All assays were performed at least twice. A set of 8 data points was obtained with various concentration of cytotoxicity agent. […]

[1] = Parrish et al. 2003; different cell line, exposure time and cytotoxicity assay; read-out: IC50, previously obtained values; cited from earlier work
SW1990 cells = test: MTT cell proliferation assay on SW1990 cells; assay type: cell-based; conditions: Homo sapiens
Experimental: Cell proliferation assay. The cytotoxicity of scFv-drug or free drug was quantified by using the Vybrant MTT cell proliferation assay kit (Molecular Probes). Assays were performed using 48-well microtiter plates containing 2×10^4 SW1990 (HdFa) cells/well in 300 μL of phenol-free growth medium. Cells were allowed to attach to the wells for 12 hours. For determination of IC50, cells were incubated for 3 or 12 h at 37° C. with various concentrations of Pan10-drug conjugates, maleimide derivatives or free drugs. Then the incubation was continued in conjugate/drug-free medium and the MTT assay was performed at the end of the seventh day. Medium was replaced with 100 μL of fresh medium containing 1.2 mM MTT and the incubation continued for three more hours. The cells were then lysed by adding 100 μL of a 10 mM solution of HCL containing SDS (100 mg/mL). The cell lysis was allowed to proceed for a period of 8 hours at the end of which the plate was centrifuged at 3000 rpm for 3 min and the supernatant transferred in a 96-well plate and read at 570 nm. Each assay included a […]. All assays were performed at least twice. A set of 8 data points was obtained with various concentration of cytotoxicity agent. In order to obtain the IC50 values, data points from each set were fit to the sigmoidal dose-response curve defined by Equation 3 using Grafit5 (Leatherbarrow R. J. 2003. Grafit version 5.08, Erithieus Software Ltd, Staines, England).
y^a=min y+[(max y−min y)/(1+(IC50/x^b)^slope)] (Equation 3)
^bx=concentration of drug (drug-scF)
Data points which were outliers (typically 1-2 per experiment) were discarded.
SW1990 cells treated with Pan10, Pan10-FM, Pan10-3 or Pan10-4 were examined by inverted microscopy for a qualitative determination of the effect of the drug conjugates on the cell viability. […] The cytotoxic effect of the Pan10-drug conjugates in comparison with the toxicity of the free drugs was then quantified by the MTT (3-(4,5-dimethylthiazol-2-yl)-2,5,-diphenyltetrazolium bromide) cell-proliferation assay. Liu et al., J Neurochem, 69: 581-593, 1997; Berridge et al., Arch Biochem Biophys, 303: 474-482, 1993; Vistica et al., Cancer Res, 51: 2515-2520, 1991. SW1990 pancreatic carcinoma cells were seeded and allowed to attach in growth medium overnight. The cultures were then treated for either 3 or 12 h with increasing concentrations of free drugs or Pan10-drug conjugates.

SMILES	IC50 on HdFa cells relative to IC50 against SW1990 cells (HdFa cells)	IC50 [1] [nM]	IC50 (SW1990 cells; SW1990, 3 h) [nM]	IC50 (SW1990 cells; SW1990, 12 h) [nM]
CC(=O)c1ccc2[nH]c(C(=O)N3C[C@@H](CCl)c4c3cc(O)c3ccccc43)cc2c1 [compound 1, 3-(5-acetylindole-2-carbonyl)-1-(S)-(chloromethyl)-5-hydroxy-1,2-dihydro-3H-benz[e]indole]	roughly the same IC50 values against both cells lines	0.002	1.4 ± 0.2	0.43 ± 0.17
NCCCn1c(C(=O)Nc2ccc3[nH]c(C(=O)N4CC(CCl)c5c4cc(O)c4ccccc54)cc3c2)cc2ccccc21 (stereo not shown) [compound 2, 3-[5-(1-(3-aminopropyl)indole-2-carbonyl)aminoindole-2-carbonyl]-1-(chloromethyl)-5-hydroxy-1,2-dihydro-3H-benz[e]indole]		0.03	32.1 ± 13.1	4.3 ± 0.2
